Reference: publication PMC7314547, “Echinoderms provide missing link in the evolution of PrRP/sNPF-type neuropeptide signalling” (eLife, 2020)
Entries after “also recorded” stand apart in the source; their conditions may differ. Where no end group is shown, it is not given here.

Columns and labels:
[1] = test system: A. rubens sNPF/PrRP-type receptor Ar-sNPF/PrRPR; assay: Receptor activation: luminescence of CHO-K1 cells expressing Ar-sNPF/PrRPR, Gα16 and apoaequorin-GFP fusion (G5A) (CHO-Ar-sNPF/PrRPR); format: cell-based, Asterias rubens; conditions: for luminescence response / receptor activation (in words): at least three independent experiments in triplicate
Experimental: A cDNA encoding Ar-sNPF/PrRPR was cloned and sequenced (Figure 3—figure supplement 1) and its sequence has been deposited in GenBank under accession number MH807444.1. […] The cloned receptor was then co-expressed with Gα16 in CHO-K1 cells expressing apoaequorin to produce the cell system CHO-Ar-sNPF/PrRPR. Synthetic ArPrRP (p[…]-NH2) was tested as a candidate ligand for Ar-sNPF/PrRPR at concentrations ranging from 10^−14 M to 10^−5 M, comparing with cells incubated in assay media without the addition of the peptide. […] Because ArPrRP contains a potential dibasic cleavage site (see underlined arginine residues in its sequence: p[…]-NH2), we hypothesised that the C-terminal pentapeptide of ArPrRP (LNPRFamide) may also be generated from ArPrRPP in vivo. Therefore, we also tested synthetic LNPRFamide as a candidate ligand for Ar-sNPF/PrRPR. […] Therefore, we conclude that the 22-residue amidated peptide ArPrRP is the natural ligand for Ar-sNPF/PrRPR in A. rubens.
Figure 5. A. rubens PrRP-like peptide ArPrRP acts as a ligand for the A. rubens sNPF/PrRP-type receptor Ar-sNPF/PrRPR. (A) The A. rubens PrRP-like peptide ArPrRP (10^−5 M; red bar) triggers luminescence in CHO-K1 cells expressing the A. rubens PrRP/sNPF-type receptor Ar-sNPF/PrRPR, the promiscuous G-protein Gα16 and the calcium-sensitive luminescent GFP-apoaequorin fusion protein G5A. For comparison, the background luminescence of cells that were not exposed to ArPrRP is shown (basal media; grey bar). Mean values (± S.E.M) were determined from three independent experiments performed in triplicate (B). Graph showing the selectivity of ArPrRP as a ligand for Ar-sNPF/PrRPR. […] Ar-sNPF/PrRPR is not activated by a C-terminal pentapeptide fragment of ArPrRP (LNPRFamide) or by the A. rubens luqin-type peptide ArLQ. Each point represents mean values (± S.E.M) from at least three independent experiments done in triplicate. The raw data for the experiments shown in Figure 5 and in Figure 5—figure supplement 2 can be found in Figure 5—source data 1. Figure 5—source data 1. Data for the graphs shown in Figure 5 and Figure 5—figure supplement 2. Figure 5—figure supplement 1. Predicted topology of Ar-sNPF/PrRPR. Seven predicted transmembrane domains are numbered successively in blue and two predicted N-glycosylation sites are shown with green boxes. This figure was generated using Protter (http://wlab.ethz.ch/protter/start/). [drawing 6] Figure 5—figure supplement 2. […] Each point represents mean values (± S.E.M.) from at least three independent experiments, with each experiment performed in triplicate. [drawing 7]
To enable the pharmacological characterisation of a candidate receptor for the A. rubens NPY/NPF/PrRP-like peptide, a cDNA encoding this receptor was cloned into the eukaryotic expression vector pcDNA 3.1(+) (Invitrogen; Cat. No. V790-20). To facilitate expression of the cloned receptor, the forward primer included a partial Kozak consensus sequence (ACC) and a sequence corresponding to the first 15 bases of the open reading frame of contig 1120879 (ACCATGCAGATGACAACC) and the reverse primer consisted of a stop codon and a sequence reverse complementary to the 3’ region of the open reading frame of contig 1120879 ([…]). PCR was performed using the forward primer and reverse primers, A. rubens radial nerve cord cDNA and Q5 polymerase (NEB; Cat. No. M0491S). […] Successful ligation and the direction of the insert was determined by restriction enzyme digestion and sequencing (TubeSeq service; Eurofins Genomics). […]

NPR-11 = conditions: ref Chalasani et al., 2010; cited from earlier work
Source text: The nematode C. elegans is a powerful model system for functional characterisation of neuropeptide signalling systems ([Frooninckx et al., 2012]). However, NPY/NPF-type signalling has thus far only been partially characterised in this species. […] However, this peptide shares little sequence similarity with NPY/NPF-typ ...

[2] = test system: CHO-K1 cells transfected with an empty pcDNA 3.1(+) vector; assay: Control: luminescence of CHO-K1 (G5A) cells transfected with empty pcDNA 3.1(+) vector; format: cell-based, Cricetulus griseus; conditions: cells transfected with vector alone; at least three independent experiments in triplicate
Experimental: A cDNA encoding Ar-sNPF/PrRPR was cloned and sequenced (Figure 3—figure supplement 1) and its sequence has been deposited in GenBank under accession number MH807444.1. […] The cloned receptor was then co-expressed with Gα16 in CHO-K1 cells expressing apoaequorin to produce the cell system CHO-Ar-sNPF/PrRPR. Synthetic ArPrRP (p[…]-NH2) was tested as a candidate ligand for Ar-sNPF/PrRPR at concentrations ranging from 10^−14 M to 10^−5 M, comparing with cells incubated in assay media without the addition of the peptide. […] Because ArPrRP contains a potential dibasic cleavage site (see underlined arginine residues in its sequence: p[…]-NH2), we hypothesised that the C-terminal pentapeptide of ArPrRP (LNPRFamide) may also be generated from ArPrRPP in vivo. Therefore, we also tested synthetic LNPRFamide as a candidate ligand for Ar-sNPF/PrRPR. […]
Figure 5. […] (A) The A. rubens PrRP-like peptide ArPrRP (10^−5 M; red bar) triggers luminescence in CHO-K1 cells expressing the A. rubens PrRP/sNPF-type receptor Ar-sNPF/PrRPR, the promiscuous G-protein Gα16 and the calcium-sensitive luminescent GFP-apoaequorin fusion protein G5A. For comparison, the background luminescence of cells that were not exposed to ArPrRP is shown (basal media; grey bar). Mean values (± S.E.M) were determined from three independent experiments performed in triplicate (B). […]

Row | Substance | luminescence response / receptor activation (in words) [1] | receptor activation (in words) (NPR-11) | ligand potency (in words) [1] | luminescence response relative to background (basal media) ([1]; 10^-5 M, mean of three independent experiments in triplicate) | EC50 ([1]; 10^-14 M to 10^-5 M in DMEM/F12, luminescence integrated over 30 s, four-parameter curve, at least three independent transfections in triplicate, read-out: EC50 (half-maximal response concentration)) [nM] | luminescence response (in words) [2]
1 | LNPRFamide [C-terminal pentapeptide of ArPrRP] | did not induce luminescence responses; also recorded: not activated | – | – | – | – | –
2 | MDANAFRMSF-NH2 | – | only showed activation at peptide concentrations of 10 and 30 µM | – | – | – | –
3 | pQDRSKAMQAERTGQLRRLNPRF-NH2 [ArPrRP, 22-residue amidated starfish PrRP-type neuropeptide, custom synthesised] | induced dose-dependent luminescence; also recorded: causes dose-dependent luminescence | – | potent ligand | approximately five times the background luminescence | 0.15 | no response; also recorded: does not trigger luminescence
